One assay addresses T1, TEM-1 (Escherichia coli, UniProt P62593).
T1 construct: made in house; host or cells: E. coli
As to the kind of experiment: β-lactamase inhibitory activity, determination of IC50 (nitrocefin hydrolysis). Format: biochemical.

The target of the next assay is AmpC (P99) (Enterobacter cloacae, UniProt P05364). Described as above.
A further assay addresses AmpC P. aeruginosa (Pseudomonas aeruginosa, UniProt P24735). Described as above.
The target in another assay is T2, SHV-1 (Klebsiella pneumoniae, UniProt P0AD64).
T2 construct: made in house; host or cells: E. coli
T2 sequence (P0AD64 22-286): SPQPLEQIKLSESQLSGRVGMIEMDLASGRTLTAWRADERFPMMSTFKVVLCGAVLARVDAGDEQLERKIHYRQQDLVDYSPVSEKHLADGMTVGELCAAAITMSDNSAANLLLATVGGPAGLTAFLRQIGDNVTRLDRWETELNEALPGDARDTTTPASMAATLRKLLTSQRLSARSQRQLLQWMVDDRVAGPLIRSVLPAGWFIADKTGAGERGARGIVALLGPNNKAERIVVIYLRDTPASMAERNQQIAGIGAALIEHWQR
The assay is described as above. It counts as biochemical.

A further assay has as its target T3, KPC-2 (Klebsiella pneumoniae, UniProt Q9F663).
T3 construct: made in house; host or cells: E. coli
Described as above. It counts as biochemical. To be noted: class (A); nitrocefin 200 μM, 30 min pre-incubation; read-out: IC50 β-lactamase KPC-2.

Assay [1] deals with K. pneumoniae 6299 (TEM-1, SHV-11, OXA-163). As to the kind of experiment: MIC of compounds alone, broth microdilution. It counts as cell-based. The settings on record: Klebsiella pneumoniae; strain 6299 (K. pneumoniae); read-out: MIC compounds of the invention alone. The method, boiled down:
(§1)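 MICs of compounds without ceftazidime were measured by CLSI broth microdilution in cation-adjusted Mueller-Hinton broth. Growth was checked by eye after 16-20 h at 35° C.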
For orientation: Dilution methods test growth across graded concentrations, often in twofold steps.

Assay [2] relates to K. pneumoniae BAA-1898 (TEM-1, SHV-11, SHV-12, KPC-2). Nature of the assay: MIC of compounds alone, broth microdilution. Format: cell-based. The settings on record: Klebsiella pneumoniae, BAA1898; strain BAA-1898 (K. pneumoniae); read-out: MIC compounds of the invention alone. An outline of the steps: as §1
For assay [3], the system named is E. coli 190317 (TEM-1, SHV-12, CTX-M-15, OXA-1). As to the kind of experiment: MIC of compounds alone, broth microdilution. Format: cell-based. To be noted: Escherichia coli, read-out: MIC compounds of the invention alone. The method, boiled down: as §1
The subject of the next assay is E. cloacae P99 (AmpC). Nature of the assay: MIC of compounds alone, broth microdilution. Format: cell-based. To be noted: Enterobacter cloacae; strain P99 (E. cloacae); read-out: MIC compounds of the invention alone. The method, boiled down: as §1
The subject of assay [4] is K. pneumoniae UFR39 (CTX-M-15, NDM-1). As to the kind of experiment: MIC of compounds alone, broth microdilution. It counts as cell-based. The settings on record: Klebsiella pneumoniae; strain UFR39 (K. pneumoniae); read-out: MIC compounds of the invention alone. The method, boiled down: as §1
Assay [5] deals with P. aeruginosa CIP107051 (TEM-24). As to the kind of experiment: MIC of compounds alone, broth microdilution. It counts as cell-based. To be noted: Pseudomonas aeruginosa; strain CIP107051 (P. aeruginosa); read-out: MIC compounds of the invention alone. An outline of the steps:
as §1

For a further assay, the target named is T4, OXA-11 (Pseudomonas aeruginosa, UniProt Q06778).
T4 construct: made in house; host or cells: E. coli
T4 sequence (Q06778 21-266): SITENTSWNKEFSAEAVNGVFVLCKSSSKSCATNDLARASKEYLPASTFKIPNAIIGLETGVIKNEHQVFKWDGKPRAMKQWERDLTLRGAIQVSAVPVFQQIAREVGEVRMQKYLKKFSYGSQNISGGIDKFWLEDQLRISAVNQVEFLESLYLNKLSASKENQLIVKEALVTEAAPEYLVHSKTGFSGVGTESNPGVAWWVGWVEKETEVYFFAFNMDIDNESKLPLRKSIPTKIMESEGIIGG
Nature of the assay: β-lactamase inhibitory activity, determination of IC50 (nitrocefin hydrolysis). Format: biochemical.

The target in another assay is T5, CTX-M-15 (Escherichia coli, UniProt Q9EXV5).
T5 construct: made in house; host or cells: E. coli
T5 sequence (Q9EXV5 entry or part of it): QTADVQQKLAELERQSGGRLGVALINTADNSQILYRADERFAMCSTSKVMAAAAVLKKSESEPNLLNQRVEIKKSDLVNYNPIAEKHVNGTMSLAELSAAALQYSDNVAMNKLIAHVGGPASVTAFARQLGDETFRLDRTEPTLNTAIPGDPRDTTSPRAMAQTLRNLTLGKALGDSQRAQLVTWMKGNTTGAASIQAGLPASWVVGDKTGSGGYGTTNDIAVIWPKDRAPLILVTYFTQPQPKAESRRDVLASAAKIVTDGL
The assay is described as above. Format: biochemical. To be noted: class (A); nitrocefin 200 μM, 30 min pre-incubation; read-out: IC50 β-lactamase CTX-M-15.

The next assay deals with T6, OXA-15 (Pseudomonas aeruginosa, UniProt Q51574).
T6 construct: made in house; host or cells: E. coli
T6 sequence (Q51574 22-275): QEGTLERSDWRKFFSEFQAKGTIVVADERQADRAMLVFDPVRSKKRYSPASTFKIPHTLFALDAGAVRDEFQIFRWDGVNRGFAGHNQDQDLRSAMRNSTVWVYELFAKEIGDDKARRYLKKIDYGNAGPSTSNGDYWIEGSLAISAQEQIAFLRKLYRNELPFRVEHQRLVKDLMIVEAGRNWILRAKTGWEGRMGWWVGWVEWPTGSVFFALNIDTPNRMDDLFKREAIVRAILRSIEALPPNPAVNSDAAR
Nature of the assay: biochemical.

For a further assay, the target named is T7, OXA-48 (Klebsiella pneumoniae, UniProt Q6XEC0).
T7 construct: made in house; host or cells: E. coli
T7 sequence (Q6XEC0 23-265 limits assumed): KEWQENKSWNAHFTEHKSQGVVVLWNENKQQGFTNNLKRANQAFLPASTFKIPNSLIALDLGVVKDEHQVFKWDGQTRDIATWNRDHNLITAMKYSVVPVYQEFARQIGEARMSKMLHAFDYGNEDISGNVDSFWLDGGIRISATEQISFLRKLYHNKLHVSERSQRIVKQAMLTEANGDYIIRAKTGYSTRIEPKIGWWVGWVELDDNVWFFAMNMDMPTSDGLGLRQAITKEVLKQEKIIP
Nature of the assay: β-lactamase inhibitory activity, determination of IC50 (nitrocefin hydrolysis). It counts as biochemical. To be noted: class (D); nitrocefin 200 μM, 30 min pre-incubation; read-out: IC50 β-lactamase OXA-48.

A further assay concerns the target T8, OXA-1 (Escherichia coli, UniProt P13661).
T8 construct: made in house; host or cells: E. coli
Described as above. Format: biochemical. The settings on record: class (D); nitrocefin 200 μM, 30 min pre-incubation; read-out: IC50 β-lactamase OXA-1.

Assay [6] concerns E. coli 131119 (TEM-1, OXA-48). As to the kind of experiment: MIC of compounds alone, broth microdilution. It counts as cell-based. The settings on record: Escherichia coli; strain 131119 (E. coli); read-out: MIC compounds of the invention alone. An outline of the steps:
as §1

For the next assay, the system named is E. coli RGN238 (OXA-1). Nature of the assay: MIC of compounds alone, broth microdilution. It counts as cell-based. To be noted: Escherichia coli; strain RGN238 (E. coli); read-out: MIC compounds of the invention alone. The method, boiled down:
as §1

T3 sequence (Q9F663 25-293 limits assumed): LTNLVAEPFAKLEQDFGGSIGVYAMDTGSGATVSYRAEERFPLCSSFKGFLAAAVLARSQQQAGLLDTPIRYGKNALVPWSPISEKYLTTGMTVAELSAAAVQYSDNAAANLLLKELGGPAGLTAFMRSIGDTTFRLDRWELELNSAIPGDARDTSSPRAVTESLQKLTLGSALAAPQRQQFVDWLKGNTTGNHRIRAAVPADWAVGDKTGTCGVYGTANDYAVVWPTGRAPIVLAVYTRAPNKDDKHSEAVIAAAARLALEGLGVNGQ
T8 sequence (P13661 26-276): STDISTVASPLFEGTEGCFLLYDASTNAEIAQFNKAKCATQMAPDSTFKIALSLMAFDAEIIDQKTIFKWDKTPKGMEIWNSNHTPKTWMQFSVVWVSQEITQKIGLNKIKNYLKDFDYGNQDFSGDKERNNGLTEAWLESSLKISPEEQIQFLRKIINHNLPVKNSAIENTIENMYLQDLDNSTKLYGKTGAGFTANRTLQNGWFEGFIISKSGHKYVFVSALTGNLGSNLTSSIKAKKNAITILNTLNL
AmpC (P99), sequence (P05364 21-381): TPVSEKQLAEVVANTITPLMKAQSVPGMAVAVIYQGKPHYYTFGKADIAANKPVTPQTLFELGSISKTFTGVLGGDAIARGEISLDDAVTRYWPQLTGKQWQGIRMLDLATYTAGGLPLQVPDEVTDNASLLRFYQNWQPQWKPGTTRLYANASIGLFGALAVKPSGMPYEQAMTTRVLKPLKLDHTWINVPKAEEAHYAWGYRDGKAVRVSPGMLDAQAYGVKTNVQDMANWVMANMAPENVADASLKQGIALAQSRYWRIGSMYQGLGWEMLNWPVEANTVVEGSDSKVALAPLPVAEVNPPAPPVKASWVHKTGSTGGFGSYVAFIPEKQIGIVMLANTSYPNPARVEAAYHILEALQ
T1 sequence (P62593 24-286 limits assumed): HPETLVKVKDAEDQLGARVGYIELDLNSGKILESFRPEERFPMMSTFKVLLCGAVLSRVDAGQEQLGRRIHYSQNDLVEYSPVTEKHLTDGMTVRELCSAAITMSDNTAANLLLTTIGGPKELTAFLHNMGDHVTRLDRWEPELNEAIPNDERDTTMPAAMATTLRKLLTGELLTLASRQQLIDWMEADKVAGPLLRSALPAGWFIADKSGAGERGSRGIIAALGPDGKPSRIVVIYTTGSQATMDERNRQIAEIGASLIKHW
AmpC P. aeruginosa, sequence (P24735 27-397): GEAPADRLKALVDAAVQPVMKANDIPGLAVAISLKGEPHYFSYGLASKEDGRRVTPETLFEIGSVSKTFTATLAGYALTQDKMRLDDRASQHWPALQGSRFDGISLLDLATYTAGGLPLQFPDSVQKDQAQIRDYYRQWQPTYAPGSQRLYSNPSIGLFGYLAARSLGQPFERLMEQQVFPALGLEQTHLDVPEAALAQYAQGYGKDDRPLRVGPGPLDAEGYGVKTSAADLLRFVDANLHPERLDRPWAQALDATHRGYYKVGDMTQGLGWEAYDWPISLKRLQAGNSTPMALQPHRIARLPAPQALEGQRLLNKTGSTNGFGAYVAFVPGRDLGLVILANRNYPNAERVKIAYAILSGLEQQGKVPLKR

With `O=C1N2CC(c3nc4cccnc4s3)=CC(C2)N1OS(=O)(=O)[O-].[Na+]` (stereo not shown) [Example 40, Sodium (7-oxo-3-thiazolo[5,4-b]pyridin-2-yl-1,6-diazabicyclo[3.2.1]oct-3-en-6-yl) sulfate], the half-inhibitory concentration (IC50) (in general, the concentration at which inhibition is half-maximal) amounted to 0.00035 µM on TEM-1; 0.01 µM against AmpC (P99); 0.23 µM at AmpC P. aeruginosa; 0.0011 µM at SHV-1; 0.0022 µM at KPC-2; 0.061 µM against OXA-11. The half-inhibitory concentration (IC50) at CTX-M-15 stood at 0.0012 µM; on OXA-15, 0.077 µM; at OXA-48, 0.0027 µM; at OXA-1 it was 0.12 µM. Besides, the MIC (in assay [1]; in [2]; in assay [3]; with E. cloacae P99 (AmpC); in assay [4]; in [5]) was > 32 µg/mL in each case.

With `COc1ncc(C2=CC3CN(C2)C(=O)N3OS(=O)(=O)[O-])s1.[Na+]` (stereo not shown) [Example 39, Sodium [3-(2-methoxythiazol-5-yl)-7-oxo-1,6-diazabicyclo[3.2.1]oct-3-en-6-yl] sulfate], the IC50 worked out at 0.0014 µM against TEM-1; 0.046 µM against AmpC (P99); 0.24 µM on AmpC P. aeruginosa; 0.0032 µM against SHV-1; 0.011 µM at KPC-2; 0.14 µM on OXA-11. For the same molecule, the IC50 on CTX-M-15 is 0.00062 µM; at OXA-15, 0.079 µM; on OXA-48, 0.00099 µM; at OXA-1, 0.22 µM. The MIC (in [1]; in [2]; in [3]; with E. cloacae P99 (AmpC); in assay [4]; in [5]) was > 32 µg/mL in each case.

For `O=C1N2CC(c3cn[nH]c3)=CC(C2)N1OS(=O)(=O)[O-].[Na+]` (stereo not shown) [Example 43, Sodium [7-oxo-3-(1H-pyrazol-4-yl)-1,6-diazabicyclo[3.2.1]oct-3-en-6-yl] sulfate], the half-maximal inhibitory concentration (IC50) stood at 0.00077 µM at TEM-1; 0.18 µM at AmpC (P99); 0.44 µM at AmpC P. aeruginosa; 0.0017 µM at SHV-1; 0.03 µM at KPC-2; 0.37 µM at OXA-11. For the same molecule, the IC50 was 0.0029 µM on CTX-M-15, 0.54 µM against OXA-15, 0.0094 µM at OXA-48 and 1.2 µM at OXA-1. Moreover, the MIC (in assay [1]; in [2]; in assay [3]; in the assay on E. cloacae P99 (AmpC); in assay [4]; in assay [5]) was > 32 µg/mL each time.

As to `O=C1N2CC=C(c3ccncc3)C(C2)N1OS(=O)(=O)[O-].[Na+]` (stereo not shown) [Example 7, Sodium [4-(4-pyridyl)-7-oxo-1,6-diazabicyclo[3.2.1]oct-3-en-6-yl]sulfate], the IC50 against TEM-1 was 0.012 µM; against AmpC (P99) it was 1.7 µM; against AmpC P. aeruginosa, 2.2 µM; on SHV-1, 0.03 µM; at KPC-2 it was 0.15 µM; against OXA-11 it was 2.3 µM. The 50% inhibitory concentration (IC50) amounted to 0.013 µM at CTX-M-15, 0.095 µM against OXA-15, 0.0049 µM at OXA-48 and 0.25 µM at OXA-1. The MIC – broadly, the least concentration at which growth counts as inhibited – is > 32 µg/mL in [1]; > 32 µg/mL in assay [2]; > 32 µg/mL in assay [6]; 8 µg/mL in assay [3]; > 32 µg/mL with E. cloacae P99 (AmpC); > 32 µg/mL in assay [5]. Also, in the assay on E. coli RGN238 (OXA-1), the MIC is > 32 µg/mL.

For the molecule `O=C1N2CC(c3ccccn3)=CC(C2)N1OS(=O)(=O)[O-].[Na+]` (stereo not shown) [Example 42, Sodium [7-oxo-3-(2-pyridyl)-1,6-diazabicyclo[3.2.1]oct-3-en-6-yl]sulfate], the IC50 at TEM-1 was determined as 0.0024 µM; against AmpC (P99) it was 0.025 µM; against AmpC P. aeruginosa it was 0.075 µM; against SHV-1, 0.0029 µM; on KPC-2 it was 0.008 µM; against OXA-11, 0.12 µM. Further, the IC50 was determined as 0.00089 µM on CTX-M-15, 0.37 µM on OXA-15, 0.031 µM on OXA-48 and 0.64 µM at OXA-1. Besides, the MIC in assay [1] was > 32 µg/mL; in assay [2], 32 µg/mL; in [3] it was 16 µg/mL; in the assay on E. cloacae P99 (AmpC), > 32 µg/mL; in assay [4], 32 µg/mL; in assay [5], > 32 µg/mL.

`O=C1N2CC=C(c3ccccn3)C(C2)N1OS(=O)(=O)[O-].[Na+]` (stereo not shown) [Example 11, Sodium [4-(2-pyridyl)-7-oxo-1,6-diazabicyclo[3.2.1]oct-3-en-6-yl]sulfate]: the IC50 against TEM-1 is 0.027 µM; against AmpC (P99) it was 8.9 µM; at AmpC P. aeruginosa it was 4.6 µM; against SHV-1, 0.056 µM; at KPC-2 it was 1.8 µM; at OXA-11 it was 6.4 µM. The IC50 at CTX-M-15 worked out at 0.029 µM; at OXA-15, 0.31 µM; at OXA-48, 0.0051 µM; at OXA-1 it was 1.3 µM. Moreover, the MIC (in assay [1]; in assay [2]; in [6]; in assay [3]; in the assay with E. cloacae P99 (AmpC); in assay [5]) was > 32 µg/mL throughout. For the same molecule, the MIC in the assay on E. coli RGN238 (OXA-1) was > 32 µg/mL.

Consider `Cn1nccc1C1=CCN2CC1N(OS(=O)(=O)[O-])C2=O.[Na+]` (stereo not shown) [Example 2, Sodium [4-(2-methylpyrazol-3-yl)-7-oxo-1,6-diazabicyclo[3.2.1]oct-3-en-6-yl] sulfate], for which the IC50 is 0.0027 µM against TEM-1; 0.67 µM at AmpC (P99); 0.96 µM at AmpC P. aeruginosa; 0.0064 µM against SHV-1; 1.2 µM on KPC-2; 0.91 µM against OXA-11. Besides, the IC50 at CTX-M-15 is 0.033 µM; against OXA-15 it was 0.0098 µM; on OXA-48 it was 0.0028 µM; on OXA-1 it was 0.064 µM. Besides, the MIC (in assay [1]; in assay [2]; in assay [6]; in [3]; in the assay on E. cloacae P99 (AmpC); in [5]) was > 32 µg/mL throughout. Further, in the assay on E. coli RGN238 (OXA-1), the MIC was > 32 µg/mL.

The values above are taken from US10183943B2, “Heterocyclic compounds and their use in preventing or treating bacterial infections” (MUTABILIS, priority 2015, dated 2019).
